US9845295B2, “Triphenylethylene compounds and uses thereof” (Purdue Research Foundation, priority 2015, dated 2017)
One block for each compound: values may come before it.

How the values were obtained:
[1] = test system: progesterone receptor (PGR) mRNA expression in MCF-7 human breast cancer cells; assay: Antagonism of β-estradiol-stimulated progesterone receptor (PGR) mRNA expression in MCF-7 cells; type: cell-based; conditions: 1 μM compound, 24 h, 10 nM E2 alone set as 100%
Procedure: To investigate the effects of ligand binding on ER-mediated transcriptional activities, the triphenylethylene bisphenols were tested for their abilities to antagonize β-estradiol (E2) in a functional assay. […] In this commonly used assay, the progesterone receptor (PGR) mRNA expression is used for assessing estrogenic or antiestrogenic activity in MCF-7 human breast cancer cells. […] The PGR mRNA expression level with 10 nM E2 stimulation alone was set as 100%, and the antiestrogenic effects of the compounds was monitored by the reduction of β-estradiol-stimulated mRNA levels.
Cell Culture and Test Compound Treatment. […]
The MCF-7 cells treated with test compounds or experimental controls for 24 h were harvested for progesterone receptor (PGR) messenger ribonucleic acid (mRNA) extraction. […] The RNA concentration was measured using the Qubit RNA BR assay (Life Technologies Corp., Carlsbad, Calif.) for the Qubit 2.0 fluorometer (Life Technologies Corp., Carlsbad, Calif.). […]
Complementary deoxyribonucleic acid (cDNA) for the real-time quantitative polymerase chain reaction (PCR) assay was synthesized from DNase-treated total RNA using the QuantiTect reverse transcription kit (QiagenInc., Valencia, Calif., USA).
Real-Time Quantitative Polymerase Chain Reaction (PCR) for cDNA. […]

[2] = biological target: T1, recombinant human ER-α (Homo sapiens, UniProt P03372); assay: Binding affinity for recombinant human ER-α (fluorescence polarization, ES2 displacement)
T1 construct: purchased Invitrogen (Carlsbad, Calif.)
T1 sequence (P03372 1-595): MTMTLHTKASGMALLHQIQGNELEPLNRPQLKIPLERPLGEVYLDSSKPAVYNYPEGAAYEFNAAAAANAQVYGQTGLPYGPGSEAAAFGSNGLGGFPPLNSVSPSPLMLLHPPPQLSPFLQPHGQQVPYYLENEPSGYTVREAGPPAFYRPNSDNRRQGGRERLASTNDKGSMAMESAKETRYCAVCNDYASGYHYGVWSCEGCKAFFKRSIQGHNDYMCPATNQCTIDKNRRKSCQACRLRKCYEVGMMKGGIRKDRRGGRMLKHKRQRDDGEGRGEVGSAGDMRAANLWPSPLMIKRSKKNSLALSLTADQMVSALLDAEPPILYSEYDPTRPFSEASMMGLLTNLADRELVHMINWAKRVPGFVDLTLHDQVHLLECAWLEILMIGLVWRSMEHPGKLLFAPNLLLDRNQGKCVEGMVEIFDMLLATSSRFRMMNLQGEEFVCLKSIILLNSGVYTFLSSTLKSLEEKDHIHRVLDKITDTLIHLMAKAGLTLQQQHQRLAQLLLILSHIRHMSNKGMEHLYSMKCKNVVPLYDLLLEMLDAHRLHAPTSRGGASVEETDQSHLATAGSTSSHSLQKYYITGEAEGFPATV
Procedure: (§1) Binding Affinities for Recombinant Human ER-α and ER-β.
(§2) The binding affinities of ER-α and ER-β were determined by measuring the change of polarization value when the fluorescent estrogen ligand, ES2, was displaced by the tested compounds. Experimental procedures were consistent with the protocol provided by Invitrogen. The fluorescent estrogen ligand, ES2, was provided in methanol/water (4:1, v/v) with the concentration of 1800 nM. Recombinant human ER-α and ER-β were provided in buffer (50 mM bis-tris propane, 400 mM KCl, 2 mM DTT, 1 mM EDTA and 10% glycerol), with the concentration of 734 nM and 3800 nM, respectively. All tested samples were dissolved in either methanol or DMSO. The sample solutions (1 pt) were mixed well with 49 pt of ES2 screening buffer (100 mM potassium phosphate, 100 μg/mL BGG and 0.02% NaN3). The ER-α/ES2 complex was prepared with the fluorescent estrogen ligand ES2, human recombinant ER and ES2 screening buffer with the concentrations of 9 nM ES2 and 30 nM ER-α. The ER-β/ES2 complex was prepared with the fluorescent estrogen ligand ES2, human recombinant ER-β and ES2 screening buffer with the concentrations of 9 nM ES2 and 20 nM ER-ft Reactions were initiated by adding ER/ES2 complex (50 μL) to bring the incubation volume to 100 μL and incubated for 2 h avoiding light. […] Excitation-emission wavelengths for fluorescence polarization were […]. The polarization values in the presence of the test competitors were compared with those in control, in which the competitor was replaced with vehicle. The extent of competition was expressed as the percentage of remaining polarization compared to the control.

[3] = test system: ER in MCF-7-2a cells; conditions: in words; cited from earlier work
[4] = biological target: T2, recombinant human aromatase (CYP19) (Homo sapiens, UniProt P11511); assay: Inhibition of recombinant human aromatase (CYP19) by microsomal incubations (MFC fluorometric substrate); type: biochemical; conditions: for times more potent than 7 against aromatase: ratio of IC50 values vs compound 7
T2 construct: purchased BD Biosciences (San Jose, Calif.)
T2 sequence (P11511 1-503): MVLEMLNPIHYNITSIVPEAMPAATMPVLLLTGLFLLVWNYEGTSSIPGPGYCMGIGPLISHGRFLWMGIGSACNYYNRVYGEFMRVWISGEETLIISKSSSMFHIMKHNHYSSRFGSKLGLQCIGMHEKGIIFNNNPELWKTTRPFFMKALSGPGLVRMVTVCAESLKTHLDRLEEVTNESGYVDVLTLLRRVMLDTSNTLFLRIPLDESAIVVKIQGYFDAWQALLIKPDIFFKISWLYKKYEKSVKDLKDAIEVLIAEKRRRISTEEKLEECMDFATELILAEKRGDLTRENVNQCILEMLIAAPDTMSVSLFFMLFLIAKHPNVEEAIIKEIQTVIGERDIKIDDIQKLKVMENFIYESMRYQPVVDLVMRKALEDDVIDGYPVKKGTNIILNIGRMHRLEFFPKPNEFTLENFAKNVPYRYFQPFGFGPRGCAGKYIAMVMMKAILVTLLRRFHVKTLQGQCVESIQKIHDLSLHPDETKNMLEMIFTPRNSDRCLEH
Procedure: Inhibition of Recombinant Human Aromatase (CYP19) by Microsomal Incubations.
All tested samples were dissolved in either methanol or DMSO. […] All the reactions were stopped by adding 0.1 M tris base dissolved in acetonitrile (75 μL). […] The extent of enzyme inhibition was expressed as the percentage of remaining enzyme activity compared to the control.

[5] = biological target: T3, recombinant human ER-β (Homo sapiens, UniProt Q92731); assay: Binding affinity for recombinant human ER-β (fluorescence polarization, ES2 displacement); conditions: for inhibition at 100 µM: 2 h, at 100000 nM compound, read-out: ER-β percent competition
T3 construct: purchased Invitrogen (Carlsbad, Calif.)
Procedure: as §1, §2

[6] = test system: postmenopausal women with breast cancer; conditions: five-year ATAC trial; cited from earlier work
[7] = Table 2, determined for compounds with inhibition higher than 90%
[8] = Table 1, determined only for compounds with >90% competition
[9] = Table 1, mean of at least three experiments

T3 sequence (Q92731 whole entry): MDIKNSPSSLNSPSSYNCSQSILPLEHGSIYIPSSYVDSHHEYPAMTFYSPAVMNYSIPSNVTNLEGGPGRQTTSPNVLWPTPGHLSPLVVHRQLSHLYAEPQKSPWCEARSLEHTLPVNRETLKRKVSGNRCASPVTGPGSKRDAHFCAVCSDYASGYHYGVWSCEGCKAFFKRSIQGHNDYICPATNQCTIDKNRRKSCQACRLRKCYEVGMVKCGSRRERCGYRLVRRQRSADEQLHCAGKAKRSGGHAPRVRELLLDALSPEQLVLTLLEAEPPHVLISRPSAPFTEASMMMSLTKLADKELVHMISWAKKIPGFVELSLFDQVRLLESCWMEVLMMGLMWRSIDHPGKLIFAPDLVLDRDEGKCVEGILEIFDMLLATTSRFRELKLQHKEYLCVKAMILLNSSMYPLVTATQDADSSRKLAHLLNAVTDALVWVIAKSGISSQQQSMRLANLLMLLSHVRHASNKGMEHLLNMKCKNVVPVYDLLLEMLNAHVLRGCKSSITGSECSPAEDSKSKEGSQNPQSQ

SMILES: CC/C(=C(\c1ccc(O)cc1)c1ccc(OCCN)cc1)c1ccccc1 [(E,Z)-norendoxifen]
PGR mRNA expression level in the presence of 10 nM E2 [1]: 33%

SMILES: CCC(=C(c1ccc(O)cc1)c1ccc(O)cc1)c1ccccc1 [Compound 7, reference compound]
ER-α percent competition ([2]; Table 2, at 100000 nM compound): 80% competition
ER antagonism / agonism in MCF-7-2a cells [3]: good ER antagonist without significant agonistic side effects
IC50 [4, 7]: 24900 ± 1400 nM
EC50 [5, 8]: 307 ± 106 nM

SMILES: N#CCC(=C(c1ccc(O)cc1)c1ccc(O)cc1)c1ccccc1 [Compound 11, 4,4-Bis(4-hydroxyphenyl)-3-phenylbut-3-enenitrile]
ER-α percent competition ([2]; Table 1, at 100 μM compound): 56% competition
IC50 [4, 9]: 12800 nM
melting point: 198 to 200 °C

SMILES: Oc1ccc(C(=C(Cn2ccnc2)c2ccccc2)c2ccc(O)cc2)cc1 [Compound 12, 4,4′-(3-(1H-Imidazol-1-yl)-2-phenylprop-1-ene-1,1-diyl)diphenol]
EC50 [2, 8]: 27.3 nM
IC50 [4, 9]: 4.77 ± 0.38 nM
fold improvement/increase in aromatase inhibitory activity compared with 7 ([4]; vs compound 7): > 5000 fold
melting point: 225 to 227 °C
EC50 [5, 8]: 40.9 nM

SMILES: Oc1ccc(C(=C(Cn2cncn2)c2ccccc2)c2ccc(O)cc2)cc1 [Compound 13, 4,4′-(2-Phenyl-3-(1H-1,2,4-triazol-1-yl)prop-1-ene-1,1-diyl)diphenol]
ER-α percent competition ([2]; Table 1, at 100 μM compound): 12% competition
IC50 [4, 9]: 137 nM
melting point: 143 to 145 °C

SMILES: N#CCC(=C(c1ccc(O)cc1)c1ccc(O)cc1)c1ccc(O)c(F)c1 [Compound 17b, 3-(3-Fluoro-4-hydroxyphenyl)-4,4-bis(4-hydroxyphenyl)but-3-enenitrile]
ER-α percent competition ([2]; Table 1, at 100 μM compound): 0% competition
IC50 [4, 9]: 17200 ± 2200 nM
melting point: 180 to 183 °C

SMILES: N#CCC(=C(c1ccc(O)cc1)c1ccc(O)cc1)c1ccc(N)cc1 [Compound 25, 3-(4-Aminophenyl)-4,4-bis(4-hydroxyphenyl)but-3-enenitrile]
ER-α percent competition ([2]; Table 1, at 100 μM compound): 0% competition
IC50 [4, 9]: 36.3 ± 0.8 nM
melting point: 235 to 238 °C

SMILES: CC(=C(c1ccc(N)cc1)c1ccc(N)cc1)c1ccc([N+](=O)[O-])cc1 [Compound 37c, 4-(1-(4-Aminophenyl)-2-(4-nitrophenyl)prop-1-enyl)benzenamine]
EC50 ([2]; Table 2): 213 ± 53.7 nM
IC50 [4, 7]: 221 nM
times more potent than 7 against aromatase [4]: about 113 times
EC50 ([5]; Table 2): 486 ± 240 nM

SMILES: CCC(=C(c1ccc(N)cc1)c1ccc(N)cc1)c1ccc([N+](=O)[O-])cc1 [Compound 37d, 4-(1-(4-Aminophenyl)-2-(4-nitrophenyl)but-1-enyl)benzenamine]
EC50 ([2]; Table 2): 72.1 ± 42.6 nM
IC50 [4, 7]: 62.2 ± 7.8 nM
times more potent than 7 against aromatase [4]: ~400 times
EC50 ([5]; Table 2): 70.8 ± 5.2 nM

SMILES: CC/C(=C(\c1ccc(O)cc1)c1ccc(OCCNC)cc1)c1ccccc1 [Endoxifen]
PGR mRNA expression level in the presence of 10 nM E2 [1]: 10%

SMILES: CC(C)(C#N)c1cc(Cn2cncn2)cc(C(C)(C)C#N)c1 [anastrozole]
improvement of disease-free survival compared to tamoxifen [6]: 13%
reduction in occurrence of contralateral breast cancer compared to tamoxifen [6]: 42%
reduction in risk of distant metastasis compared to tamoxifen [6]: 16%
reduction in the rate of recurrence compared to tamoxifen [6]: 21%

Results, then the compound that gave them:

EC50 ([2]; Table 2): 11000 ± 827 nM
IC50 [4, 7]: 230 nM
EC50 ([5]; Table 2): 857 ± 389 nM
SMILES: CC(=C(c1ccc(O)cc1)c1ccc(O)cc1)c1ccc(N)cc1 [Compound 38a, 4-(2-(4-Aminophenyl)-1-(4-hydroxyphenyl)prop-1-enyl)phenol]

EC50 ([2]; Table 2): 1710 ± 630 nM
IC50 [4, 7]: 8.8 nM
EC50 ([5]; Table 2): 1260 ± 424 nM
SMILES: CCC(=C(c1ccc(O)cc1)c1ccc(O)cc1)c1ccc(N)cc1 [Compound 38b, 4-(2-(4-Aminophenyl)-1-(4-hydroxyphenyl)but-1-enyl)phenol]

ER-α percent competition ([2]; Table 2, at 100000 nM compound): 31% competition
IC50 [4, 7]: 177 ± 20.2 nM
inhibition at 100 µM ([5]; Table 2): 77%
SMILES: CC(=C(c1ccc(N)cc1)c1ccc(N)cc1)c1ccc(N)cc1 [Compound 38c, 4-(1,2-Bis(4-aminophenyl)prop-1-enyl)benzenamine]

ER-α percent competition ([2]; Table 2, at 100000 nM compound): 25% competition
IC50 [4, 7]: 13.4 ± 3 nM
inhibition at 100 µM ([5]; Table 2): 76%
SMILES: CCC(=C(c1ccc(N)cc1)c1ccc(N)cc1)c1ccc(N)cc1 [Compound 38d, 4-(1,2-Bis(4-aminophenyl)but-1-enyl)benzenamine]
